What was measured:
[1] = biological target: T1, Hepatocyte ASGPR receptor (Homo sapiens, UniProt P07306); assay: Binding affinity test with hepatocyte ASGPR receptor (Cy5 flow cytometry, binding saturation curve)
T1 construct: endogenous in cells
T1 sequence (P07306 1-291): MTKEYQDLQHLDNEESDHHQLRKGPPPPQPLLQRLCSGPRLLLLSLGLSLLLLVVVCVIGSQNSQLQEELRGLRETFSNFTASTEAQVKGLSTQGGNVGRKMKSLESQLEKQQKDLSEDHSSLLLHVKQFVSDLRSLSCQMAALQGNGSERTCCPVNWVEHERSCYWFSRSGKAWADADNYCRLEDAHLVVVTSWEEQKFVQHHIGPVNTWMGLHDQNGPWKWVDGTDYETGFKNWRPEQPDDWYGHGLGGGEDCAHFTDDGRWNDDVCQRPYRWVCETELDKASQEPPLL
T1 sequence (P07307 1-311 partner): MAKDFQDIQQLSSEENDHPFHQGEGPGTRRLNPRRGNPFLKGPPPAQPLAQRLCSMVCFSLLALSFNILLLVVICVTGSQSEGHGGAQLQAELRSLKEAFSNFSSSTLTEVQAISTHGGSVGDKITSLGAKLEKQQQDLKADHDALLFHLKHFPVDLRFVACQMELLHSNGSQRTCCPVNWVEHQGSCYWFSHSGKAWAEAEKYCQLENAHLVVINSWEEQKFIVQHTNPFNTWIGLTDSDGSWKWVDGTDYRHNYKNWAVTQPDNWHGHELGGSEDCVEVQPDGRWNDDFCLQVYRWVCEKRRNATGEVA
Method: Embodiment 1: Binding Affinity Test with Hepatocyte ASGPR Receptor
The compound G1, G4, G5 obtained from the examples 1, 4, 5, bound to the above mentioned siRNA respectively to form conjugates which were shown in Table 1.
G1-12, G4-12, G5-12 (1 uM) were diluted respectively in a gradient according to the following Table 2.
The cell concentration was diluted by DMEM culture medium with 2% FBS to 4*10^5 cells/mL.
200 μL cells of each sample and 200 μL siRNA were mixed uniformly, 200 μL cells of the blank control group and 200 μL culture medium were mixed uniformly, and were added in 3 wells of 96-well plate with U-shaped bottom, 100 μL each well. Samples of each concentration of all siRNA were placed in the ice box after sampling, and were placed in decolorization shaker and incubated in dark for 2 hours.
50 g of 96-well plate with U-shaped bottom was centrifuged for 2 minutes at 4° C. 80 μL supernatant was aspirated and discarded by pipette, 10 μg/mL propidium iodide was prepared by using of PBS with 2% FBS, 100 μL PI reagent was added in each well and was stained for 15 minutes. After staining, 50 g of 96-well plate with U-shaped bottom was centrifuged for 2 minutes at 4° C. After washed by PBS with 2% FBS for twice, 100 μL PBS with 2% FBS was added for resuspension, flow cytometer was used to test and count the average Cy5 fluorescence intensity of live cell population.

[2] = In vivo hepatic targeting of GalNac-siRNA (siRNA concentration of hepatic tissue by qPCR); parameters: species or system Balb/c-nu mice; conditions: 100 mg/kg, tail vein injection once, livers 6 hours after administration; compared with negative control siRNA not linked to GalNAc
Method: Balb/c-nu mice, male, body weight ranged 18-22 g, were randomly divided into 3 groups, 5 mice/group, which respectively were blank control group, negative control group and targeting group, the administration dose was 100 mg/kg. The negative control group was administered by tail vein injection of negative control test substance (NC, Ribobio, siM200922112438) once, the targeting group was administered by tail vein injection of the obtained G1-12 test substance of example 6 once, the blank control group was administered an equal volume of saline. All animals' livers were immediately placed in liquid nitrogen after 6 hours of administration, then were saved at −80° C., the siRNA pharmaceutical concentration of hepatic tissue was tested by qPCR method. • 1. Drawing the standard curve. […] The average Ct values of each standard points were calculated based on the obtained Ct values, the log value of standard point concentration was abscissa, the obtained average Ct value was ordinate, the standard curve was drawn, the regression equation and R^2 were calculated, R^2>0.99. • 2. […] The mice liver samples were ground to powder by liquid nitrogen grinding method, and the weight of powder was measured. […] The sample Ct values were substituted into the regression equation of the standard curve, the siRNA content of samples was calculated.

Substance: G1-12: G1 bound to 5' end of SEQ ID NO: 1, paired with 5'-Cy5 SEQ ID NO: 2; structure Z1 (sense GUAUGUUGCCCGUUUGUCC; antisense GGACAAACGGGCAACAUACCU; G1 ligand 5'; Cy5 label; modified_base join(1,5,8,12,16) OTHER; deoxyribonucleotide modification; modified_base 3 OTHER; thiophosphorylated skeleton modification and deoxyribonucleotide modification; modified_base join(4,6,7,9,10,11,13,14,15,17) OTHER; 2'-fluoro modification; modified_base join(2,18,19) OTHER; thiophosphorylated skeleton modification and 2'-fluoro modification; modified_base join(1,5,7,9,11,13,15,17) OTHER; 2'-O-methyl modification; modified_base join(3,19,20,21) OTHER; thiophosphorylated skeleton modification and 2'-O-methyl modification; modified_base join(2,4) OTHER; …) [Compound G1-12]
- Bmax ([1]; average Cy5 fluorescence intensity of live cells minus blank, one site binding (hyperbola) fit, 0.9-100 nM, 2 hours on ice): 153854
- Kd ([1]; one site binding (hyperbola) fit of Cy5 fluorescence, 0.9-100 nM, 2 hours on ice, read-out: Kd (dissociation equilibrium constant)): 1.98 nM
- binding affinity with ASGPR receptor ([1]; statement in words from Table 3): reach a higher level
- distribution in mice liver (siRNA content of hepatic tissue) [2]: obviously increased

Source: patent publication US20260167621A1, “Three Cluster Galactose Type Compound, Conjugate, Making Method and Use Thereof” (GUANGZHOU RIBOBIO CO., LTD., priority 2023, published 2026)
